Source: BindingDB's records for doi:10.1016/j.chembiol.2007.03.013 (Portland State University, 2007)

Key:
[1] = molecular target: T1, 3-oxoacyl-[acyl-carrier-protein] synthase 3 (Escherichia coli, UniProt C3TDZ2); test: FabH Enzyme Assay; details: pH 7; 37 °C
T1 sequence (C3TDZ2 whole entry): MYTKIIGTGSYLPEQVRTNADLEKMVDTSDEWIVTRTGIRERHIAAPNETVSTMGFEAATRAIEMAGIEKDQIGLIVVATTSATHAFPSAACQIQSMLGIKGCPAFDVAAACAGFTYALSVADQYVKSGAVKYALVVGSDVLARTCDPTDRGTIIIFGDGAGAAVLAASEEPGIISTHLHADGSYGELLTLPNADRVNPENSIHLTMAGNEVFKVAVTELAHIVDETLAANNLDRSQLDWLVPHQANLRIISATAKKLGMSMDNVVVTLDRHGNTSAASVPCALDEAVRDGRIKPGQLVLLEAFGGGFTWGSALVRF
Description: (§1) Escherichia coli FabH assays were carried out using standard coupled trichloroacetic acid precipitation assay to determine the rate formation of radiolabeled 3-ketoacyl-ACP from malonyl-ACP. Mycobacterium tuberculosis FabH assay was done by sustituting malonyl-CoA for MACP.

[2] = molecular target: T2, 3-oxoacyl-[acyl-carrier-protein] synthase 3 (Mycobacterium tuberculosis (strain CDC 1551 / Oshkosh), UniProt P9WNG2); test: FabH Enzyme Assay; details: pH 7; 37 °C
T2 sequence (P9WNG2 whole entry): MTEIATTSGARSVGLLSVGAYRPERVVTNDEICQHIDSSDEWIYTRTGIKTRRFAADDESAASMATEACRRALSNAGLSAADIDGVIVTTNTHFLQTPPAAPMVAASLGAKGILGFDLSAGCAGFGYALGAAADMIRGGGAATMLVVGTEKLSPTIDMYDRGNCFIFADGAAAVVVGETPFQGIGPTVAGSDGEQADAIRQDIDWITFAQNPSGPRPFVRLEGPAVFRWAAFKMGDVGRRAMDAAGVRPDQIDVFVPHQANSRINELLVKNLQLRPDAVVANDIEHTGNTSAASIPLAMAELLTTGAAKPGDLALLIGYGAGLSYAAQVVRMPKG
Description: as §1

SMILES	IC50 [1]	IC50 [2]
CCCCCCCCSSCCNC(=O)CCNC(=O)C(O)C(C)(C)OP(=O)(O)OP(=O)(O)OCC1OC(n2cnc3c(N)ncnc32)C(O)C1OP(=O)(O)O (stereo not drawn) [Octyl-CoA disulfide 4]	> 300 µM	30.1 µM
CSSCCNC(=O)CCNC(=O)C(O)C(C)(C)OP(=O)(O)OP(=O)(O)OCC1OC(n2cnc3c(N)ncnc32)C(O)C1OP(=O)(O)O (stereo not drawn) [Methyl-CoA disulfide 1]	57.1 µM	> 300 µM
CCCCCCCCCCSSCCNC(=O)CCNC(=O)C(O)C(C)(C)OP(=O)(O)OP(=O)(O)OCC1OC(n2cnc3c(N)ncnc32)C(O)C1OP(=O)(O)O (stereo not drawn) [Decyl-CoA disulfide 5]	> 300 µM	1.2 µM
CCCCSSCCNC(=O)CCNC(=O)C(O)C(C)(C)OP(=O)(O)OP(=O)(O)OCC1OC(n2cnc3c(N)ncnc32)C(O)C1OP(=O)(O)O (stereo not drawn) [Butyl-CoA disulfide 2]	> 300 µM	> 300 µM
